We go through one molecule from patent US20230140397A1, “ANTI-PSMA ANTIBODY-EXATECAN ANALOGUE CONJUGATE AND MEDICAL USE THEREOF” (JIANGSU HENGRUI PHARMACEUTICALS CO., LTD., priority 2020, published 2023).

Common to all, as to test: Cell proliferation inhibition assay (ATP, CellTiter-Glo)
Common to all, as to format: cell-based
In general terms: Cellular ATP, detected with luciferase, serves as a proxy for viable cell number.

One assay deals with PC-3 cells. Particulars: Homo sapiens, 120 h; PC-3, 5 days, 4.5% FBS; read-out: Effect on cell killing (IC50). The procedure:
(§1) In this experiment, the content of ATP in the cells was detected, and the inhibitory effect of the PSMA ADC on the proliferation of cells (ATCC, LNCaP/CRL-1740, 22Rv1/CRL-2505 and PC-3/CRL-1435) was evaluated according to the IC50 values.
(§2) Then 20 μL of the dilution was added to the above cell plate, and incubated in an incubator (37° C., 5% CO2) for 5 days. The compound 2-B (i.e., free toxin of 9-A) was diluted into a stock solution with DSMO, which was then prepared into an initial concentration of 200 μM with PBS, and diluted in a gradient dilution ratio of 1:6 with PBS to obtain 9 concentration points, and an additional 0 concentration point was set. Then 1 μL of the dilution was added to 20 μL of RPMI-1640, and the mixture was transferred to a 96-well culture plate, and incubated in an incubator (37° C., 5% CO2) for 5 days. In the 96-well culture plate, 80 μL of CellTiter-Glo reagent was added to each well, and the plate was incubated at room temperature for 10-15 min away from the light. The chemiluminescence signal values were read on Victor3, and the data were processed using GraphPad software.
PC-3 cells were cultured in an F-12K medium containing 10% FBS, and passaged 2-3 times a week in a passage ratio of 1:3 or 1:6. During passaging, the medium was removed by pipetting, and the cell layer was rinsed with 5 mL of 0.25% pancreatin. […]

A further assay concerns LNCaP cells. Particulars: Homo sapiens, 120 h, 5 days, 4.5% FBS, read-out: Effect on cell killing (IC50). The procedure:
as §1
LNCaP cells were cultured in an RPMI-1640 medium containing 10% FBS, and passaged 2-3 times a week in a passage ratio of 1:3 or 1:6. During passaging, the medium was removed by pipetting, and the cell layer was rinsed with 5 mL of 0.25% pancreatin. Then the pancreatin was removed by pipetting, the cells were digested in an incubator for 3-5 min, and then a fresh medium was added to resuspend cells. To a 96-well culture plate were added 180 μL of cell suspension at a density of 2×10^3 cells/well and an RPMI-1640 medium containing 4.5% FBS, and to the periphery of the 96-well plate was only added the medium. The plate was incubated in an incubator for 24 h (37° C., 5% CO2).
Then 20 μL of the dilution was added to the above cell plate, and incubated in an incubator (37° C., 5% CO2) for 5 days. […] The chemiluminescence signal values were read on Victor3, and the data were processed using GraphPad software.

The next assay relates to 22Rv1 cells. Particulars: Homo sapiens, 120 h; 22RV1, 5 days, 4.5% FBS; read-out: Effect on cell killing (IC50). The procedure:
as §1, §2
22Rv1 cells were cultured in an RPMI-1640 medium containing 10% FBS, and passaged twice a week in a passage ratio of 1:3 or 1:6. During passaging, the medium was removed by pipetting, and the cell layer was rinsed with 5 mL of 0.25% pancreatin. […]

For `CC[C@@]1(O)C(=O)OCc2c1cc1n(c2=O)Cc2c-1nc1cc(F)c(C)c3c1c2[C@@H](NC(=O)[C@H](O)C1CC1)CC3` [Compound 2-B, (R)-2-cyclopropyl-N-((1S,9S)-9-ethyl-5-fluoro-9-hydroxy-4-methyl-10,13-dioxo-2,3,9,10,13,15-hexahydro-1H,12H-benzo[de]pyrano[3′,4′:6,7]indolizino[1,2-b]quinolin-1-yl)-2-hydroxyacetamide], the IC50 (as a rule, the point on the concentration scale where inhibition reaches its midpoint) with PC-3 cells came out at 8.33 nM; in the assay on LNCaP cells it was 1.7 nM; with 22Rv1 cells, 2.84 nM.
